For the assay, the system named is P388 leukemia ip, CD2F1 mice, survival T/C. As to the kind of experiment: NCI In Vivo Anticancer Drug Screen. Data for tumor model P388 Leukemia (intraperitoneal) in CD2F1 (CDF1) mice. The settings on record: endpoint: median survival time, higher = longer survival. In outline:
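Mice carrying the transplanted tumor received test compound or vehicle. Survival was recorded in each group, and the value is the treated-group measurement divided by that of the vehicle-treated control group.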

[1] abbreviates: dose: 100.0 mg/kg/injection, schedule: Q01DX001 (ip), vehicle: Klucel (hydroxypropylcellulose) (HPC).
Where [2] appears, read: dose: 200.0 mg/kg/injection, schedule: Q01DX001 (ip), vehicle: Klucel (hydroxypropylcellulose) (HPC).
Where [3] appears, read: dose: 400.0 mg/kg/injection, schedule: Q01DX001 (ip), vehicle: Klucel (hydroxypropylcellulose) (HPC).
Setting [4] is: dose: 60.0 mg/kg/injection, schedule: Q01DX005 (ip), vehicle: saline with Tween-80.
Where [5] appears, read: dose: 120.0 mg/kg/injection, schedule: Q01DX005 (ip), vehicle: saline with Tween-80.
Where [6] appears, read: dose: 240.0 mg/kg/injection, schedule: Q01DX005 (ip), vehicle: saline with Tween-80.
Where [7] appears, read: dose: 50.0 mg/kg/injection, schedule: Q01DX009 (ip), vehicle: Klucel (hydroxypropylcellulose) (HPC).
The mark [8] stands for this setting: dose: 100.0 mg/kg/injection, schedule: Q01DX009 (ip), vehicle: Klucel (hydroxypropylcellulose) (HPC).
[9] abbreviates: dose: 200.0 mg/kg/injection, schedule: Q01DX009 (ip), vehicle: Klucel (hydroxypropylcellulose) (HPC).

The structures appear in SMILES notation. Values joined by “and” are separate entries in the source; they are usually repeats but may differ in a detail not shown here. Equal values may be shown once. Inconclusive results and toxic doses are left out.

For the molecule `NC(CCCCNC(=O)CCCCCCCCC(=O)NCCCCC(N)C(=O)O)C(=O)O` (stereo not drawn), the T/C runs as follows: (dose: 50.0 mg/kg/injection, schedule: Q01DX009 (ip), vehicle: suspension in saline) 95 % of control; (dose: 100.0 mg/kg/injection, schedule: Q01DX009 (ip), vehicle: suspension in saline) 105 % of control; (dose: 200.0 mg/kg/injection, schedule: Q01DX009 (ip), vehicle: suspension in saline) 100 % of control.
Turning to `CC(=O)Oc1c(C)c(O)c(C(C)=O)c2c1C1(C)C(=O)C(C(C)=O)=C(O)C=C1O2` (stereo not drawn), the T/C is 104 % of control and 107 % of control (dose: 6.25 mg/kg/injection, schedule: Q01DX009 (ip), vehicle: gum acacia); 101 % of control and 106 % of control (dose: 12.5 mg/kg/injection, schedule: Q01DX009 (ip), vehicle: gum acacia); 101 % of control and 110 % of control (dose: 25.0 mg/kg/injection, schedule: Q01DX009 (ip), vehicle: gum acacia); 100 % of control and 104 % of control (dose: 50.0 mg/kg/injection, schedule: Q01DX009 (ip), vehicle: gum acacia); 108 % of control and 110 % of control (dose: 100.0 mg/kg/injection, schedule: Q01DX009 (ip), vehicle: gum acacia); 113 % of control and 119 % of control (dose: 200.0 mg/kg/injection, schedule: Q01DX009 (ip), vehicle: gum acacia).
For the molecule `CC1(C)N=C(N)N=C(N)N1c1ccc(CNC(=O)Nc2cccc(S(=O)(=O)F)c2)cc1`, the T/C (dose: 100.0 mg/kg/injection, schedule: Q04DX003 (ip), vehicle: saline) is 154 % of control; the T/C (dose: 150.0 mg/kg/injection, schedule: Q04DX003 (ip), vehicle: saline) was 168 % of control; the T/C (dose: 225.0 mg/kg/injection, schedule: Q04DX003 (ip), vehicle: saline) is 200 % of control.
Take `CN(Cc1nc2ccccc2[nH]1)N=O`: the T/C under setting [1] is 97 % of control, the T/C under setting [2] was 107 % of control and the T/C under setting [3] is 102 % of control.
As to `COC(=O)c1nc2[nH]n(-c3ccccc3)c(=O)c2c(C(=O)OC)c1C(C)C(=O)c1ccc(Cl)cc1` (stereo not drawn), the T/C by setting is: under setting [4], 96 % of control; under setting [5], 103 % of control; under setting [6], 98 % of control.
Consider `Cc1ccc(N=Nc2c(O)n(-c3ccccc3C)c(=S)n(-c3ccccc3Cl)c2=O)cc1`, for which the T/C under setting [1] was 101 % of control, the T/C under setting [2] was 103 % of control and the T/C under setting [3] is 104 % of control.
With `Oc1ccc(N=Nc2ccc3c4c(cccc24)-c2ccccc2-3)c2cccnc12`, the T/C reads like this: under setting [7], 99 % of control; under setting [8], 102 % of control; under setting [9], 114 % of control.
Consider `O=[N+]([O-])c1cccc(N=Cc2ccc(N(CCCl)CCCl)cc2)c1`, for which the T/C is, setting by setting: (dose: 50.0 mg/kg/injection, schedule: Q04DX003 (ip), vehicle: Klucel (hydroxypropylcellulose) (HPC)) 106 % of control; (dose: 100.0 mg/kg/injection, schedule: Q04DX003 (ip), vehicle: Klucel (hydroxypropylcellulose) (HPC)) 104 % of control; (dose: 200.0 mg/kg/injection, schedule: Q04DX003 (ip), vehicle: Klucel (hydroxypropylcellulose) (HPC)) 100 % of control.
Turning to `Cc1ncc(/C=N/O)n1Cc1ccccc1`, the T/C runs as follows: under setting [4], 99 % of control; under setting [5], 93 % of control; under setting [6], 90 % of control.
Turning to `COC(=O)C(Cc1ccccc1C#N)(OC)OC`, the T/C is, setting by setting: (dose: 50.0 mg/kg/injection, schedule: Q01DX005 (ip), vehicle: saline with Tween-80) 98 % of control; (dose: 100.0 mg/kg/injection, schedule: Q01DX005 (ip), vehicle: saline with Tween-80) 101 % of control; (dose: 200.0 mg/kg/injection, schedule: Q01DX005 (ip), vehicle: saline with Tween-80) 98 % of control.
Regarding `O=S(=O)(Nc1ccc2ccc3cccc4ccc1c2c34)c1ccccc1`, the T/C was 98 % of control under setting [7], 100 % of control under setting [8] and 100 % of control under setting [9].
As to `O=C(O)C(CS(=O)(=O)O)S(=O)(=O)O` (stereo not drawn), the T/C is 110 % of control (dose: 7.5 mg/kg/injection, schedule: Q01DX009 (ip), vehicle: saline with Tween-80); 109 % of control (dose: 15.0 mg/kg/injection, schedule: Q01DX009 (ip), vehicle: saline with Tween-80); 106 % of control (dose: 30.0 mg/kg/injection, schedule: Q01DX009 (ip), vehicle: saline with Tween-80).
Turning to `Nc1n[n+](-c2ccc(Cl)cc2)no1`, the T/C reads like this: (dose: 3.13 mg/kg/injection, schedule: Q01DX009 (ip), vehicle: water) 108 % of control; (dose: 6.25 mg/kg/injection, schedule: Q01DX009 (ip), vehicle: water) 102 % of control and 124 % of control; (dose: 12.5 mg/kg/injection, schedule: Q01DX009 (ip), vehicle: water) 124 % of control; (dose: 25.0 mg/kg/injection, schedule: Q01DX009 (ip), vehicle: water) 155 % of control.
As to `Nc1nc([Se])c2ncn(C3OC(CO)C(O)C3O)c2n1` (stereo not drawn), the T/C (dose: 4.0 mg/kg/injection, schedule: Q01DX009 (ip), vehicle: saline) is 150 % of control and 157 % of control; the T/C (dose: 6.25 mg/kg/injection, schedule: Q01DX009 (ip), vehicle: saline) is 159 % of control; the T/C (dose: 8.0 mg/kg/injection, schedule: Q01DX009 (ip), vehicle: saline) is 164 % of control and 179 % of control; the T/C (dose: 8.0 mg/kg/injection, schedule: Q01DX009 (ip), vehicle: water) was 157 % of control; the T/C (dose: 12.5 mg/kg/injection, schedule: Q01DX009 (ip), vehicle: saline) is 183 % of control; the T/C (dose: 16.0 mg/kg/injection, schedule: Q01DX009 (ip), vehicle: saline) was 157 % of control and 198 % of control and 202 % of control. Also, the T/C reads like this: (dose: 16.0 mg/kg/injection, schedule: Q01DX009 (ip), vehicle: water) 160 % of control and 161 % of control; (dose: 25.0 mg/kg/injection, schedule: Q01DX009 (ip), vehicle: saline) 186 % of control; (dose: 32.0 mg/kg/injection, schedule: Q01DX009 (ip), vehicle: saline) 121 % of control and 247 % of control and 98 % of control; (dose: 32.0 mg/kg/injection, schedule: Q01DX009 (ip), vehicle: water) 190 % of control and 191 % of control; (dose: 50.0 mg/kg/injection, schedule: Q01DX009 (ip), vehicle: saline) 96 % of control.
As for `COc1ccc2cc3n(c(=N)c2c1OC)CCc1cc2c(cc1-3)OCO2`, the T/C is, setting by setting: (dose: 0.63 mg/kg/injection, schedule: Q01DX009 (ip), vehicle: water) 101 % of control; (dose: 1.25 mg/kg/injection, schedule: Q01DX009 (ip), vehicle: water) 110 % of control; (dose: 2.5 mg/kg/injection, schedule: Q01DX009 (ip), vehicle: water) 105 % of control; (dose: 5.0 mg/kg/injection, schedule: Q01DX009 (ip), vehicle: water) 110 % of control; (dose: 10.0 mg/kg/injection, schedule: Q01DX009 (ip), vehicle: water) 110 % of control; (dose: 20.0 mg/kg/injection, schedule: Q01DX009 (ip), vehicle: water) 110 % of control.
Consider `CC1CC(C)CN(S(=O)(=O)c2cc(Cl)c(Oc3ccc([N+](=O)[O-])cc3Cl)c(Cl)c2)C1` (stereo not drawn), for which the T/C (dose: 60.0 mg/kg/injection, schedule: Q01DX005 (ip), vehicle: Klucel (hydroxypropylcellulose) (HPC)) is 101 % of control; the T/C (dose: 120.0 mg/kg/injection, schedule: Q01DX005 (ip), vehicle: Klucel (hydroxypropylcellulose) (HPC)) is 100 % of control; the T/C (dose: 240.0 mg/kg/injection, schedule: Q01DX005 (ip), vehicle: Klucel (hydroxypropylcellulose) (HPC)) is 110 % of control.
Turning to `COc1ccc(OC)c(C(/C=N/O)OC)c1` (stereo not drawn), the T/C by setting is: (dose: 25.0 mg/kg/injection, schedule: Q04DX003 (ip), vehicle: saline with Tween-80) 98 % of control and 100 % of control; (dose: 50.0 mg/kg/injection, schedule: Q04DX003 (ip), vehicle: saline with Tween-80) 98 % of control and 94 % of control; (dose: 100.0 mg/kg/injection, schedule: Q04DX003 (ip), vehicle: saline with Tween-80) 99 % of control and 87 % of control; (dose: 200.0 mg/kg/injection, schedule: Q04DX003 (ip), vehicle: saline with Tween-80) 103 % of control and 94 % of control; (dose: 400.0 mg/kg/injection, schedule: Q04DX003 (ip), vehicle: saline with Tween-80) 99 % of control.
For the molecule `COCc1ccc(C(N)C(=O)O)cc1` (stereo not drawn), the T/C was 92 % of control (dose: 100.0 mg/kg/injection, schedule: Q01DX001 (ip), vehicle: saline with Tween-80) and 108 % of control (dose: 200.0 mg/kg/injection, schedule: Q01DX001 (ip), vehicle: saline with Tween-80).
`CN(C)/N=C(\N)c1nnn(C)n1`: the T/C is 106 % of control (dose: 50.0 mg/kg/injection, schedule: Q01DX001 (ip), vehicle: Klucel (hydroxypropylcellulose) (HPC)); 101 % of control under setting [1]; 100 % of control under setting [2].

Source of the values: PubChem BioAssay AID330 (DTP/NCI, 2004).
